Results published in PubChem BioAssay AID1963829 (Molecular Pharmacology Branch, DTP, NCI, 2024).

Tested on: 935938-334-R-J1-PDC complex spheroid viability
Assay: Anticancer human tumor 935938-334-R-J1-PDC patient-derived small intestine adenocarcinoma cell line growth inhibition [POLQ]
Details: for IC50: curve of first compound; for viability, T/C: stronger effect = lower value
Procedure, shortened: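 Three-cell-type spheroids modelling solid tumor plus stroma served as the readout system; POL inhibitors were tested individually and in combination, concentration ranges set by clinical Cmax where known.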

[1] = second compound 0.0316 µM, first compound 0.0316 µM
[2] = second compound 0.0316 µM, first compound 0.1 µM
[3] = second compound 0.0316 µM, first compound 0.316 µM
[4] = second compound 0.0316 µM, first compound 1 µM
[5] = second compound 0.0316 µM, first compound 3.16 µM
[6] = second compound 0.0316 µM, first compound 10 µM
[7] = second compound 0.1 µM, first compound 0.0316 µM
[8] = second compound 0.1 µM, first compound 0.1 µM
[9] = second compound 0.1 µM, first compound 0.316 µM
[10] = second compound 0.1 µM, first compound 1 µM
[11] = second compound 0.1 µM, first compound 3.16 µM
[12] = second compound 0.1 µM, first compound 10 µM
[13] = second compound 0.316 µM, first compound 0.0316 µM
[14] = second compound 0.316 µM, first compound 0.1 µM
[15] = second compound 0.316 µM, first compound 0.316 µM
[16] = second compound 0.316 µM, first compound 1 µM
[17] = second compound 0.316 µM, first compound 3.16 µM
[18] = second compound 0.316 µM, first compound 10 µM
[19] = second compound 1 µM, first compound 0.0316 µM
[20] = second compound 1 µM, first compound 0.1 µM
[21] = second compound 1 µM, first compound 0.316 µM
[22] = second compound 1 µM, first compound 1 µM
[23] = second compound 1 µM, first compound 3.16 µM
[24] = second compound 1 µM, first compound 10 µM
[25] = second compound 3.16 µM, first compound 0.0316 µM
[26] = second compound 3.16 µM, first compound 0.1 µM
[27] = second compound 3.16 µM, first compound 0.316 µM
[28] = second compound 3.16 µM, first compound 1 µM
[29] = second compound 3.16 µM, first compound 3.16 µM
[30] = second compound 3.16 µM, first compound 10 µM
[31] = second compound 10 µM, first compound 0.0316 µM
[32] = second compound 10 µM, first compound 0.1 µM
[33] = second compound 10 µM, first compound 0.316 µM
[34] = second compound 10 µM, first compound 1 µM
[35] = second compound 10 µM, first compound 3.16 µM
[36] = second compound 10 µM, first compound 10 µM
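Also: spheroids exposed to drugs for seven days before viability read.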
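For viability, T/C in this document: 100% = DMSO vehicle control wells.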

Compound `C=CC(=O)N1CCN(c2nc(=O)n(-c3c(C)ccnc3C(C)C)c3nc(-c4c(O)cccc4F)c(F)cc23)C(C)C1` (stereo not drawn) + COC1C(OC(N)=O)C(O)C(Oc2ccc3c(O)c(NC(=O)c4ccc(O)c(CC=C(C)C)c4)c(=O)oc3c2C)OC1(C)C has an IC50 (second compound 0.0316 µM) of over 10 µM, an IC50 (second compound 0.1 µM) of over 10 µM and an IC50 (second compound 0.316 µM) of over 10 µM. The IC50 (second compound 1 µM) was over 10 µM, the IC50 (second compound 3.16 µM) was over 10 µM and the IC50 (second compound 10 µM) was over 10 µM. For the same compound, the viability, T/C [1] was 107%, the viability, T/C [2] was 88.4% and the viability, T/C [3] was 107%. It also gave a viability, T/C [4] of 82.9%, a viability, T/C [5] of 131% and a viability, T/C [6] of 111%. For the same compound, the viability, T/C [7] was 85.3%, the viability, T/C [8] was 110% and the viability, T/C [9] was 90.8%. The viability, T/C [10] was 99.3%, the viability, T/C [11] was 104% and the viability, T/C [12] was 126%. The viability, T/C [13] was 129%, the viability, T/C [14] was 87.2% and the viability, T/C [15] was 103%. The viability, T/C [16] was 80.7%, the viability, T/C [17] was 85.5% and the viability, T/C [18] was 115%. For the same compound, the viability, T/C [19] was 101%, the viability, T/C [20] was 86.4% and the viability, T/C [21] was 101%. For the same compound, the viability, T/C [22] was 107%, the viability, T/C [23] was 102% and the viability, T/C [24] was 113%. For the same compound, the viability, T/C [25] was 117%, the viability, T/C [26] was 99.7% and the viability, T/C [27] was 93.4%. For the same compound, the viability, T/C [28] was 96.9%, the viability, T/C [29] was 102% and the viability, T/C [30] was 111%. It also gave a viability, T/C [31] of 102%, a viability, T/C [32] of 81.3% and a viability, T/C [33] of 106%. For the same compound, the viability, T/C [34] was 94.7%, the viability, T/C [35] was 103% and the viability, T/C [36] was 118%.

Work on `CCc1cc2c(N3CCc4c(cc(Cn5ccnc5)cc4-c4cn(C)nc4C(F)(F)F)C3=O)ccnc2c(OC)n1` + Cc1cccc(N(C)C(=O)C2C(O)CCN2c2nc(C)cc(C(F)(F)F)c2C#N)c1 yielded an IC50 (second compound 0.0316 µM) of over 10 µM, an IC50 (second compound 0.1 µM) of over 10 µM and an IC50 (second compound 0.316 µM) of over 10 µM. The IC50 (second compound 1 µM) was over 10 µM, the IC50 (second compound 3.16 µM) was over 10 µM and the IC50 (second compound 10 µM) was over 10 µM. For the same compound, the viability, T/C [1] was 69.1%, the viability, T/C [2] was 66.5% and the viability, T/C [3] was 68.8%. For the same compound, the viability, T/C [4] was 58.4%, the viability, T/C [5] was 69.4% and the viability, T/C [6] was 55.3%. It also gave a viability, T/C [7] of 74.5%, a viability, T/C [8] of 75% and a viability, T/C [9] of 63.2%. For the same compound, the viability, T/C [10] was 54.5%, the viability, T/C [11] was 60.6% and the viability, T/C [12] was 55.8%. It also gave a viability, T/C [13] of 61.5%, a viability, T/C [14] of 87.3% and a viability, T/C [15] of 64.2%. For the same compound, the viability, T/C [16] was 59.7%, the viability, T/C [17] was 69.5% and the viability, T/C [18] was 64.1%. It also gave a viability, T/C [19] of 98.3%, a viability, T/C [20] of 54.9% and a viability, T/C [21] of 58.3%. It also gave a viability, T/C [22] of 67.8%, a viability, T/C [23] of 65.8% and a viability, T/C [24] of 57.6%. For the same compound, the viability, T/C [25] was 78.3%, the viability, T/C [26] was 68.3% and the viability, T/C [27] was 67.9%. It also gave a viability, T/C [28] of 79%, a viability, T/C [29] of 71.8% and a viability, T/C [30] of 57.8%. The viability, T/C [31] was 95.5%, the viability, T/C [32] was 62.8% and the viability, T/C [33] was 81.6%. For the same compound, the viability, T/C [34] was 65.8%, the viability, T/C [35] was 61.2% and the viability, T/C [36] was 51.9%.

`COc1cc(C2c3cc4c(cc3C(OC3OC5COC(C)OC5C(O)C3O)C3COC(=O)C23)OCO4)cc(OC)c1O` (stereo not drawn) + Nc1ccc(C#CCN(C(=O)Cc2ncc(C(F)(F)F)cc2C(F)(F)F)c2ccc(F)cc2)nn1 was tested, and the IC50 (second compound 0.0316 µM) was 0.832 µM, the IC50 (second compound 0.1 µM) was 0.666 µM and the IC50 (second compound 0.316 µM) was 0.762 µM. For the same compound, the IC50 (second compound 1 µM) was 0.616 µM, the IC50 (second compound 3.16 µM) was 0.597 µM and the IC50 (second compound 10 µM) was 0.565 µM. The viability, T/C [1] was 95.1%, the viability, T/C [2] was 86.1% and the viability, T/C [3] was 87.8%. For the same compound, the viability, T/C [4] was 42.9%, the viability, T/C [5] was 26.8% and the viability, T/C [6] was 31.6%. The viability, T/C [7] was 99.5%, the viability, T/C [8] was 90.8% and the viability, T/C [9] was 74.5%. The viability, T/C [10] was 35.5%, the viability, T/C [11] was 37.5% and the viability, T/C [12] was 29.9%. For the same compound, the viability, T/C [13] was 108%, the viability, T/C [14] was 68.9% and the viability, T/C [15] was 69.1%. For the same compound, the viability, T/C [16] was 49.6%, the viability, T/C [17] was 31.2% and the viability, T/C [18] was 30.4%. The viability, T/C [19] was 83.3%, the viability, T/C [20] was 89.2% and the viability, T/C [21] was 60.3%. For the same compound, the viability, T/C [22] was 43.9%, the viability, T/C [23] was 28% and the viability, T/C [24] was 31.7%. The viability, T/C [25] was 109%, the viability, T/C [26] was 86.7% and the viability, T/C [27] was 64.6%. It also gave a viability, T/C [28] of 37.6%, a viability, T/C [29] of 32.7% and a viability, T/C [30] of 31.3%. It also gave a viability, T/C [31] of 110%, a viability, T/C [32] of 79.2% and a viability, T/C [33] of 64.8%. It also gave a viability, T/C [34] of 38.4%, a viability, T/C [35] of 29% and a viability, T/C [36] of 33.7%.

For `CCc1cc2c(N3CCc4c(cc(Cn5ccnc5)cc4-c4cn(C)nc4C(F)(F)F)C3=O)ccnc2c(OC)n1` + Nc1ccc(C#CCN(C(=O)Cc2ncc(C(F)(F)F)cc2C(F)(F)F)c2ccc(F)cc2)nn1, the IC50 (second compound 0.0316 µM) was over 10 µM, the IC50 (second compound 0.1 µM) was over 10 µM and the IC50 (second compound 0.316 µM) was over 10 µM. It also gave an IC50 (second compound 1 µM) of over 10 µM, an IC50 (second compound 3.16 µM) of over 10 µM and an IC50 (second compound 10 µM) of over 10 µM. For the same compound, the viability, T/C [1] was 79.9%, the viability, T/C [2] was 57.4% and the viability, T/C [3] was 52.4%. For the same compound, the viability, T/C [4] was 70.4%, the viability, T/C [5] was 59.1% and the viability, T/C [6] was 60.8%. It also gave a viability, T/C [7] of 88.2%, a viability, T/C [8] of 68% and a viability, T/C [9] of 64.5%. It also gave a viability, T/C [10] of 57.4%, a viability, T/C [11] of 70% and a viability, T/C [12] of 60.7%. The viability, T/C [13] was 88.8%, the viability, T/C [14] was 66% and the viability, T/C [15] was 67.9%. For the same compound, the viability, T/C [16] was 63.5%, the viability, T/C [17] was 63.5% and the viability, T/C [18] was 61.7%. The viability, T/C [19] was 91.2%, the viability, T/C [20] was 67.1% and the viability, T/C [21] was 82.7%. It also gave a viability, T/C [22] of 70.5%, a viability, T/C [23] of 59.5% and a viability, T/C [24] of 64.4%. The viability, T/C [25] was 90.6%, the viability, T/C [26] was 97.6% and the viability, T/C [27] was 70.3%. The viability, T/C [28] was 64.6%, the viability, T/C [29] was 72.5% and the viability, T/C [30] was 60.2%. For the same compound, the viability, T/C [31] was 80.7%, the viability, T/C [32] was 82.2% and the viability, T/C [33] was 85.5%. It also gave a viability, T/C [34] of 64.3%, a viability, T/C [35] of 56.7% and a viability, T/C [36] of 66.9%.
